This is an account of results in patent US20250163051A1, “PYRIMIDO AROMATIC RING COMPOUND AND USE THEREOF IN DRUG” (SUNSHINE LAKE PHARMA CO., LTD., priority 2022, published 2025).

The target of one series is T1, hTLR8 (Homo sapiens, UniProt Q9NR97).
T1 construct: expressed in transfected cells; host or cells: HEK-Blue hTLR8 cells
T1 sequence (Q9NR97 27-1041): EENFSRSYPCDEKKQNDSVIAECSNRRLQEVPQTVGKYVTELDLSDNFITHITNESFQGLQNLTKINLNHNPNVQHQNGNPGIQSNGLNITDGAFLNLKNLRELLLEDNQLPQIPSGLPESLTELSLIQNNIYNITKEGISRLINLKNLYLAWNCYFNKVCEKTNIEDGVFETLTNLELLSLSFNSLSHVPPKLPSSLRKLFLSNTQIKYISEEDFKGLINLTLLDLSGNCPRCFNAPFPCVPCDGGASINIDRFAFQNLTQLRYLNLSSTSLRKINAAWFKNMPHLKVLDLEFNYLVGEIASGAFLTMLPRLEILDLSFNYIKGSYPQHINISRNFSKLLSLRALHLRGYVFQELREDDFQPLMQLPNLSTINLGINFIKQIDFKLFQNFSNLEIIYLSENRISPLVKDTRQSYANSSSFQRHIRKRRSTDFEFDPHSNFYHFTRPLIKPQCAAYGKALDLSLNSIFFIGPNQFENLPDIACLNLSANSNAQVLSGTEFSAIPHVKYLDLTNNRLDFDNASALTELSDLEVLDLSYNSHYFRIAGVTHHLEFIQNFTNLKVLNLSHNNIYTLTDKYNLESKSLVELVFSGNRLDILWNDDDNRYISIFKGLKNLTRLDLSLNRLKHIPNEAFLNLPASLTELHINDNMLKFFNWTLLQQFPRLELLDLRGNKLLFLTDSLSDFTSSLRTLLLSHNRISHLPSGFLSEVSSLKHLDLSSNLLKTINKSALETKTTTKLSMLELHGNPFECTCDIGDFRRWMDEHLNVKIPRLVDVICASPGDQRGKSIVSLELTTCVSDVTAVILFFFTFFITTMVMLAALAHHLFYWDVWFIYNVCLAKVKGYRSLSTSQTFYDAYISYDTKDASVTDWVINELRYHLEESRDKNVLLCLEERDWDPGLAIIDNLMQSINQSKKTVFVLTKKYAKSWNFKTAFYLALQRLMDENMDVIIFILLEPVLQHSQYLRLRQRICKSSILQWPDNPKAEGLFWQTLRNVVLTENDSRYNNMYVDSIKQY
Nature of the series: Agonistic activity on human TLR8 in HEK-Blue hTLR8 cells (QUANTI-Blue). The following applies: 24 h incubation, OD650, read-out: hTLR 8 EC50. Format: cell-based.

The target in the next series is T2, CYP2D6 (Homo sapiens, UniProt P10635).
T2 construct: from tissue; host or cells: human liver microsomes
T2 sequence (P10635 whole entry): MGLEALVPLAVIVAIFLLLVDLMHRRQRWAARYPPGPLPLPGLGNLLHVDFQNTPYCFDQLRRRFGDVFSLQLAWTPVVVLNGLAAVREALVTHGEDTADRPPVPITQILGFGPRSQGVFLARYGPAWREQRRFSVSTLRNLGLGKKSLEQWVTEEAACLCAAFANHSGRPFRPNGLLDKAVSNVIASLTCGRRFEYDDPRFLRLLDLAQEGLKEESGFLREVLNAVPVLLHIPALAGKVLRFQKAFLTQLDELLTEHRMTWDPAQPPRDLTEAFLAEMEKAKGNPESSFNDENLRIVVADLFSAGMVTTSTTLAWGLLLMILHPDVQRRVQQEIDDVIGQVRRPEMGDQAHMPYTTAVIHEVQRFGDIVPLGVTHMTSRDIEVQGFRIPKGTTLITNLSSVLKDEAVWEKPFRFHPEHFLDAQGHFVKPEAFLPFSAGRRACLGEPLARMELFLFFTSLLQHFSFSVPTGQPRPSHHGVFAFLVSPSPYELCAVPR
Nature of the series: Inhibition of human liver microsomal CYP2D6. The following applies: human liver microsomes, 10 μM test substance; read-out: Relative inhibition rate (%) CYP2D6. The series is classed as in vitro ADME. As to the method: (§1) Experimental purpose: The inhibitory effects of the test compounds on the major metabolizing enzymes CYP1A2, CYP2C19, CYP2D6 and CYP3A4 in microsomes were evaluated using the human liver microsomal system. Experimental method: The test substance was incubated with a suspension of human liver microsomes containing cytochrome P450 enzymes CYP1A2, CYP2C19, CYP2D6 and CYP3A4 at a concentration of 10 μM in the final incubation system. The known substrates were metabolized by the corresponding single enzymes to generate specific metabolites, and the metabolites were determined by UPLC-MS/MS method. The relative inhibition rate (%) was calculated by the percentage reduction of metabolite production by the test compound and solvent DMSO in the same time period. N is the concentration value of the probe substrate metabolite and it is assumed that the […] with or without inhibitor at 0 min is 0. N+inh is the metabolite concentration in the group with inhibitor, and Nveh is the metabolite concentration in the group without inhibitor. The results of the inhibition test of the compounds of the present invention on human liver microsomal CYP enzymes are shown in Table C.
A general note: Liver microsomes are a subcellular fraction often used to study metabolism.

The target of series [1] is T3, CYP3A4 (Homo sapiens, UniProt P08684).
T3 construct: from tissue; host or cells: human liver microsomes
T3 sequence (P08684 whole entry): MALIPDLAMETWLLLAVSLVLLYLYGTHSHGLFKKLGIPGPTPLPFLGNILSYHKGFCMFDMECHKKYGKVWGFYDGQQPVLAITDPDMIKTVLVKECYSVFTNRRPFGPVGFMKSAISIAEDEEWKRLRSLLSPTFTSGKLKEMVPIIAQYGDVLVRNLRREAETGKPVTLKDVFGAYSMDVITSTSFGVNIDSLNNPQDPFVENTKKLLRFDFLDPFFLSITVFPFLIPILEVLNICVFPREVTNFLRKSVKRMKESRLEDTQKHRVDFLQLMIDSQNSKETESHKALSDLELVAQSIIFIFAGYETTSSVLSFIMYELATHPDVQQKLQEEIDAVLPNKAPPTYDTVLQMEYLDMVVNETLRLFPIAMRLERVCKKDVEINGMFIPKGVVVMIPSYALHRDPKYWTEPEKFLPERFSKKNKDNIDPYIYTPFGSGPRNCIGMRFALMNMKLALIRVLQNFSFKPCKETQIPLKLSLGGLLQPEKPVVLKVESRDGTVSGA
Nature of the series: Inhibition of human liver microsomal CYP3A4. The settings on record: human liver microsomes, 10 μM test substance. The series is classed as in vitro ADME. Here is the method: as §1

For the next series, the target named is T4, CYP2C19 (Homo sapiens, UniProt P33261).
T4 construct: from tissue; host or cells: human liver microsomes
T4 sequence (P33261 whole entry): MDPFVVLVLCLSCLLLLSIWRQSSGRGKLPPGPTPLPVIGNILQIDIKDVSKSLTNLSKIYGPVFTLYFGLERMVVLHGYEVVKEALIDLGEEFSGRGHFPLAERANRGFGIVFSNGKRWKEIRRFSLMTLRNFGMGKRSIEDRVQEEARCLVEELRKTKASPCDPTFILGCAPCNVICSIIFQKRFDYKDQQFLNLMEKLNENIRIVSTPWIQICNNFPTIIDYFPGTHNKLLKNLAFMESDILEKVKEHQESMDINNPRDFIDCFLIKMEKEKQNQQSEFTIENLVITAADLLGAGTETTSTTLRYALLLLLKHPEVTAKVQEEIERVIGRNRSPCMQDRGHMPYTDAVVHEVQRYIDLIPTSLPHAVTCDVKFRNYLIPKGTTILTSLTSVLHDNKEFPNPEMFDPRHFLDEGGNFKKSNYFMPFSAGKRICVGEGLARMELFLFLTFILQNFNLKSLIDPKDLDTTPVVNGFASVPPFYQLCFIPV
Put plainly: Inhibition of human liver microsomal CYP2C19. Format: in vitro ADME. The following applies: human liver microsomes, 10 μM test substance; read-out: Relative inhibition rate (%) CYP2C19. Here is the method:
as §1

Series [2] deals with CYP3A4. Nature of the series: Induction of CYP3A4 in frozen human hepatocytes. The series is classed as in vitro ADME. The settings on record: 72 h induction, concentration and readout not stated; for CYP3A4 Induction percentage relative to positive control (%): positive control Rifampicin. Here is the method:
(§2) Experimental purpose: Using frozen human hepatocytes as the test system, the induction effects of the test substances on CYP1A2, CYP2B6 and CYP3A4 were evaluated from two aspects of enzyme activity and mRNA level.
(§3) Experimental method: 24 hours after cell plating, induction was started by adding medium containing the test compound (test concentrations were 10, 1, and 0.1 μM), and fresh drug-containing medium was replaced every 24 hours. After 72 hours of induction, the medium was replaced with medium containing CYP1A2, CYP2B6, and CYP3A4 specific substrates for 30 minutes of incubation. 100 μL was taken for treatment, and the labeled metabolites of the substrates were detected to evaluate the enzyme activity level. Finally, the cells were lysed and reverse transcribed, and the expression levels of CYP1A2, CYP2B6 and CYP3A4 genes in the cells were evaluated by real-time quantitative PCR.
(§4) The induction fold of the test compound compared with the blank control and the induction percentage of the test compound compared with the positive control were used as the basis for evaluating the induction potential of the test compound. Among them, the positive control for CYP1A2 is Omeprazole; the positive control for CYP2B6 is Phenobarbital; the positive control for CYP3A4 is Rifampicin.

The next series has as its system CYP2B6. Put plainly: Induction of CYP2B6 in frozen human hepatocytes. The settings on record: 72 h induction, concentration and readout not stated; for CYP2B6 Induction percentage relative to positive control (%): positive control Phenobarbital. Format: in vitro ADME. Here is the method: as §2, §3, §4
A further series deals with T5, hERG channel (Homo sapiens, UniProt Q12809).
T5 construct: expressed in transfected cells; host or cells: HEK-293 cells stably expressing hERG
T5 sequence (Q12809 whole entry): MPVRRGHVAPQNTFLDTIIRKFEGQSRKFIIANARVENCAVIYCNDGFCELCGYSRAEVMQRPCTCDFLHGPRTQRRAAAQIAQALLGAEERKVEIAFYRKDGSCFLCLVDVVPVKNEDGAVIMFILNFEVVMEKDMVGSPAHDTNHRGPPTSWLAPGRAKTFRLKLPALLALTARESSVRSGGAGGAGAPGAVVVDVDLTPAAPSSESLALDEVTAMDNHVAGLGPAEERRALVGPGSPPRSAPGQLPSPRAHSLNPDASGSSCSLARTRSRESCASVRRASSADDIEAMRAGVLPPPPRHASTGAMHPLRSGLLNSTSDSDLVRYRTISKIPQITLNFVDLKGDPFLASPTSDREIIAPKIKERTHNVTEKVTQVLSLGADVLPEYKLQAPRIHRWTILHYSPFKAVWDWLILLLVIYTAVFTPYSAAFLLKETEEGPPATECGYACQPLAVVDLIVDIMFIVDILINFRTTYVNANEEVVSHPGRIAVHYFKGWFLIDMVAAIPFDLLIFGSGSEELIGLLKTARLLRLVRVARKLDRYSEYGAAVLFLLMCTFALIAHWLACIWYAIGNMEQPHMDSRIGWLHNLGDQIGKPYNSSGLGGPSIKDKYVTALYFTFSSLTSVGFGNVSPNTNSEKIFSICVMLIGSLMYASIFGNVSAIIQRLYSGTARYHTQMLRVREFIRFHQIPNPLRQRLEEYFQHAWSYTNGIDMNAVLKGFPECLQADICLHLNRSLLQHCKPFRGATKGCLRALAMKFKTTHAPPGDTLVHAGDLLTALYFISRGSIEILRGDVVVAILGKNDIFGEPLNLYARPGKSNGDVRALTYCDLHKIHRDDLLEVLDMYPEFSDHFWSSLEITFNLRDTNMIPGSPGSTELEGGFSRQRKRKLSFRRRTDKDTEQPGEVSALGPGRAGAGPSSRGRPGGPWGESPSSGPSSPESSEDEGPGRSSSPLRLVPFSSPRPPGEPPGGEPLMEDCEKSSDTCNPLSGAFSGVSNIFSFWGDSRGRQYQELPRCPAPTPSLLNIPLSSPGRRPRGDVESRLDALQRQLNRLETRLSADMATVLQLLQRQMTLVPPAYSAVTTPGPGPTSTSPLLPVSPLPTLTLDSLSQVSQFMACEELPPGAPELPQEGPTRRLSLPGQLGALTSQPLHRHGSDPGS
Nature of the series: hERG channel current in HEK293 cells, automated patch clamp. Format: cell-based. The following applies: HEK-293 cells stably expressing hERG, whole-cell patch clamp, 0.3-30 μM. As to the method: Test 2: Detection of the Effect of Compounds on hERG Channel Currents Stably Expressed in HEK293 Cells Using Automated Patch Clamp
Experimental purpose: The concentration-effect relationship of the blocking effect of the compounds on hERG channels was determined using the patch clamp technique and HEK-293 cells stably expressing hERG channels to evaluate their risk of inhibitory effect on cardiac hERG potassium channels.
Experimental method: hERG cells were clamped using the patch clamp technique to form a high-resistance seal and then the membrane was broken. The whole-cell recording mode was used to record the hERG current. Each drug concentration was set to be administered twice for at least 5 minutes. The test concentrations were 0.3 μM, 1 μM, 3 μM, 10 μM and 30 μM, and the changes of the test compounds on hERG current were observed.

Where [3] appears, read: probe Midazolam, substrate Midazolam, read-out: Relative inhibition rate (%) CYP3A4 (Midazolam).
Setting [4] is: probe Testosterone, substrate Testosterone, read-out: Relative inhibition rate (%) CYP3A4 (Testosterone).

Read-outs that look alike come from different tables or passages of the source.

Method for hTLR8: Purpose: HEK-Blue™ hTLR7 and HEK-Blue™ hTLR8 cells were used to detect the agonist and cytotoxic activities of compounds against hTLR7 and hTLR8.
The experimental steps were as shown below: • 1) Preparation of compound: The compound was prepared into a 20 mM stock solution with DMSO, and then the stock solution was diluted 3-fold in a gradient and added to a 96-well plate, for a total of 10 concentrations, with duplicate wells for each concentration. For negative control wells, 0.5 μL DMSO was added to each well. The final DMSO concentration was 0.5%. • 2) HEK-Blue™ hTLR7 or HEK-Blue™ hTLR8 cells were suspended in culture medium and then seeded into 96-well plates containing compounds at a cell count of 50,000 per well. The compounds and cells were incubated for 24 h at 37° C., 5% Co2. • 3) QUANTI-Blue was used for the detection solution: to a mixture of 1 mL of QB reagent and 1 mL of QB buffer was added 98 mL of sterile water, the mixture was mixed and dissolved, and then placed at room temperature for 10 min. • 4) Activity test of the compound: 20 μL of the culture supernatant in step 2) was added to each well of a 96-well plate containing 180 μL of QUANTI-Blue detection solution. After incubation at 37° C. for 1 h, the absorbance at 650 nm (OD650) was detected using a multifunctional microplate reader Flextation III. • 5) Detection of cell activity: The chemiluminescent signal (RLU) was detected using the multifunctional microplate reader Flextation III according to the instructions of Celltiter-Glo. • 6) Data analysis
Activity of compounds: OD650 values were analyzed using GraphPad Prism software, and the compound dose-effect curves were fitted to calculate the EC50 values of the compounds.

Turning to `CCCC[C@](C)(CO)Nc1nc(N)nc2cc(-c3cc(=O)n(C)cc3CN3CCCCC3)ccc12` [Example 8], on hTLR8, the EC50 amounted to 42 nM. Also, the inhibition at 10 µM is 18.1% at CYP2D6, 9.6% on CYP3A4 [1] (setting [3]), 6.3% at CYP3A4 [1] (setting [4]) and 9.3% at CYP2C19. Further, the “CYP3A4 Induction fold relative to blank control” value with CYP3A4 [2] worked out at 0.6. Further, the “CYP3A4 Induction percentage relative to positive control (%)” value with CYP3A4 [2] was −1.5%. Also, in the series with CYP2B6, the “CYP2B6 Induction fold relative to blank control” value is 0.6. For the same compound, the “CYP2B6 Induction percentage relative to positive control (%)” value in the series on CYP2B6 is reported as −4.1%. Also, the IC50 against hERG channel is > 30000 nM.

In the case of `CCCCN(C)Cc1c[nH]c(=O)cc1-c1cnc2c(N[C@@](C)(CO)CCCC)nc(N)nc2c1` [Example 28, (R)-4-(2-Amino-4-((1-hydroxy-2-methylhexan-2-yl)amino)pyrido[3,2-d]pyrimidin-7-yl)-5-((butyl(methyl)amino)methyl)pyridin-2(1H)-one], the EC50 on hTLR8 worked out at 63 nM. Besides, the inhibition at 10 µM at CYP2D6 was found to be 12.9%; at CYP3A4 [1] (setting [3]), 31.1%; on CYP3A4 [1] (setting [4]), 17.9%; at CYP2C19, 30.5%. In addition, the “CYP3A4 Induction fold relative to blank control” value with CYP3A4 [2] came to 2.0. The “CYP3A4 Induction percentage relative to positive control (%)” value in the series with CYP3A4 [2] stood at 2.0%. Moreover, the “CYP2B6 Induction fold relative to blank control” value in the series with CYP2B6 is 0.9. In addition, the “CYP2B6 Induction percentage relative to positive control (%)” value in the series on CYP2B6 is −0.7%. In addition, on hERG channel, the IC50 was > 30000 nM.

As to `CCCC[C@](C)(CO)Nc1nc(N)nc2cc(-c3cc(=O)[nH]cc3CN(C)CCOC)cnc12` [Example 21], the EC50 on hTLR8 stood at 34 nM. In addition, the inhibition at 10 µM at CYP2D6 came out at 9.5%; at CYP3A4 [1] (setting [3]) it was 15.3%; at CYP3A4 [1] (setting [4]) it was 18%; at CYP2C19, 10.5%. For the same compound, the “CYP3A4 Induction fold relative to blank control” value in the series with CYP3A4 [2] is on record as 1.4. Further, the “CYP3A4 Induction percentage relative to positive control (%)” value in the series with CYP3A4 [2] came out at 1.5%. In the series on CYP2B6, the “CYP2B6 Induction fold relative to blank control” value is on record as 0.5. For the same compound, the “CYP2B6 Induction percentage relative to positive control (%)” value in the series with CYP2B6 was −4.8%. Also, on hERG channel, the IC50 is > 30000 nM.

Take `C=CCCN(C)Cc1c[nH]c(=O)cc1-c1ccc2c(N[C@@](C)(CO)CCCC)nc(N)nc2c1` [Example 35]: the EC50 on hTLR8 was found to be 79 nM. Moreover, the inhibition at 10 µM amounted to 31.4% on CYP2D6, 23.9% on CYP3A4 [1] (setting [3]), 11.5% at CYP3A4 [1] (setting [4]) and 9.7% at CYP2C19. For the same compound, the “CYP3A4 Induction fold relative to blank control” value with CYP3A4 [2] is on record as 1.3. Moreover, the “CYP3A4 Induction percentage relative to positive control (%)” value in the series on CYP3A4 [2] is given as 0.9%. Moreover, the “CYP2B6 Induction fold relative to blank control” value in the series on CYP2B6 turned out to be 0.4. For the same compound, in the series on CYP2B6, the “CYP2B6 Induction percentage relative to positive control (%)” value is recorded as −5.6%.

As usually defined, the EC50 is the concentration needed to bring the measured effect to its halfway point. Usually inhibition stands for the percentage by which the read-out fell short of the control. By IC50 is commonly meant the concentration at which inhibition is half-maximal. Low readings indicate greater potency, high ones weaker potency.
